We go through nine molecules from patent US20230172209A1, “FUNGICIDAL COMPOSITIONS” (SYNGENTA CROP PROTECTION AG, priority 2020, published 2023).

Holding throughout (format): cell-based
One test deals with Corynespora cassiicola. In words: Corynespora cassiicola growth inhibition in liquid culture (microtiter plate, photometric). As to conditions: A-1.3 0 ppm. The text has this:
A synergistic effect exists whenever the action of an active ingredient combination is greater than the sum of the actions of the individual components. The action to be expected E for a given active ingredient combination obeys the so-called COLBY formula and can be calculated as follows (COLBY, S. R. “Calculating synergistic and antagonistic responses of herbicide combination”. Weeds, Vol. 15, pages 20-22; 1967): • ppm=milligrams of active ingredient (=a.i.) per liter of spray mixture • X=% action by active ingredient A) using p ppm of active ingredient • Y=% action by active ingredient B) using q ppm of active ingredient. According to COLBY, the expected (additive) action of active ingredients A)+B) using p+q ppm of active ingredient is: If the action actually observed (O) is greater than the expected action (E), then the action of the combination is super-additive, i.e. there is a synergistic effect. In mathematical terms, synergism corresponds to a positive value for the difference of (O-E). In the case of purely complementary addition of activities (expected activity), said difference (O-E) is zero. A negative value of said difference (O-E) signals a loss of activity compared to the expected activity. Corynespora cassiicola (Target Spot of Soybean, Target Leaf Spot of Tomato): Conidia of the fungus from cryogenic storage were directly mixed into nutrient broth (PDB potato dextrose broth). A DMSO solution of the test compounds was placed into a microtiter plate (96-well format) and the nutrient broth containing the fungal spores was added to it. The test plates were incubated at 24° C. and the inhibition of growth was determined photometrically after 3-4 days at 620 nm. Rates and results are set out in the following tables: […]

In a further test the test system is Septoria glycines. In words: Septoria glycines growth inhibition in liquid culture (microtiter plate, visual). An excerpt:
A synergistic effect exists whenever the action of an active ingredient combination is greater than the sum of the actions of the individual components. The action to be expected E for a given active ingredient combination obeys the so-called COLBY formula and can be calculated as follows (COLBY, S. R. “Calculating synergistic and antagonistic responses of herbicide combination”. Weeds, Vol. 15, pages 20-22; 1967): • ppm=milligrams of active ingredient (=a.i.) per liter of spray mixture • X=% action by active ingredient A) using p ppm of active ingredient • Y=% action by active ingredient B) using q ppm of active ingredient. According to COLBY, the expected (additive) action of active ingredients A)+B) using p+q ppm of active ingredient is: If the action actually observed (O) is greater than the expected action (E), then the action of the combination is super-additive, i.e. there is a synergistic effect. In mathematical terms, synergism corresponds to a positive value for the difference of (O-E). In the case of purely complementary addition of activities (expected activity), said difference (O-E) is zero. A negative value of said difference (O-E) signals a loss of activity compared to the expected activity. Septoria glycines (Brown Spot): Conidia of the fungus from cryogenic storage were directly mixed into nutrient broth ([…] potato dextrose broth). A DMSO solution of the test compounds was placed into a microtiter plate (96-well format) and the nutrient broth containing the fungal spores was added to it. The test plates were incubated at 24° C. and the inhibition of growth was determined visually after 72 hrs.

Test [1] relates to Mycosphaerella arachidis Syn. Cercospora arachidicola. As to the kind of experiment: Mycosphaerella arachidis growth inhibition in liquid culture (microtiter plate, photometric). Conditions: A-1.3 0 ppm. An excerpt: A synergistic effect exists whenever the action of an active ingredient combination is greater than the sum of the actions of the individual components. The action to be expected E for a given active ingredient combination obeys the so-called COLBY formula and can be calculated as follows (COLBY, S. R. “Calculating synergistic and antagonistic responses of herbicide combination”. Weeds, Vol. 15, pages 20-22; 1967): • ppm=milligrams of active ingredient (=a.i.) per liter of spray mixture • X=% action by active ingredient A) using p ppm of active ingredient • Y=% action by active ingredient B) using q ppm of active ingredient. According to COLBY, the expected (additive) action of active ingredients A)+B) using p+q ppm of active ingredient is: If the action actually observed (O) is greater than the expected action (E), then the action of the combination is super-additive, i.e. there is a synergistic effect. In mathematical terms, synergism corresponds to a positive value for the difference of (O-E). In the case of purely complementary addition of activities (expected activity), said difference (O-E) is zero. A negative value of said difference (O-E) signals a loss of activity compared to the expected activity. Mycosphaerella arachidis Syn. Cercospora arachidicola (Brown Leaf Spot of Peanut): Conidia of the fungus from cryogenic storage were directly mixed into nutrient broth (PDB potato dextrose broth). A DMSO solution of the test compounds was placed into a microtiter plate (96-well format) and the nutrient broth containing the fungal spores was added to it. The test plates were incubated at 24° C. and the inhibition of growth was determined photometrically after 5-6 days at 620 nm.

Another test deals with Septoria tritici. As to the kind of experiment: Septoria tritici growth inhibition in liquid culture (microtiter plate, photometric). An excerpt: A synergistic effect exists whenever the action of an active ingredient combination is greater than the sum of the actions of the individual components. The action to be expected E for a given active ingredient combination obeys the so-called COLBY formula and can be calculated as follows (COLBY, S. R. “Calculating synergistic and antagonistic responses of herbicide combination”. Weeds, Vol. 15, pages 20-22; 1967): • ppm=milligrams of active ingredient (=a.i.) per liter of spray mixture • X=% action by active ingredient A) using p ppm of active ingredient • Y=% action by active ingredient B) using q ppm of active ingredient. According to COLBY, the expected (additive) action of active ingredients A)+B) using p+q ppm of active ingredient is: If the action actually observed (O) is greater than the expected action (E), then the action of the combination is super-additive, i.e. there is a synergistic effect. In mathematical terms, synergism corresponds to a positive value for the difference of (O-E). In the case of purely complementary addition of activities (expected activity), said difference (O-E) is zero. A negative value of said difference (O-E) signals a loss of activity compared to the expected activity. Septoria tritici (Leaf Blotch): Conidia of the fungus from cryogenic storage were directly mixed into nutrient broth (PDB potato dextrose broth). A DMSO solution of the test compounds was placed into a microtiter plate (96-well format) and the nutrient broth containing the fungal spores was added to it. The test plates were incubated at 24° C. and the inhibition of growth was determined photometrically after 72 hrs.

For `O=C(NC1CCC1c1ccc(Cl)cc1Cl)c1cccnc1C(F)(F)F` (stereo in doubt) [Cyclobutrifluram], the “Observed Activity (%)” value in the test on Corynespora cassiicola (Cyclobutrifluram 0.0125 ppm) came out at 0%; with Corynespora cassiicola (Cyclobutrifluram 0.025 ppm), 20%; with Corynespora cassiicola (Cyclobutrifluram 0.05 ppm), 50%; with Septoria glycines (Table 13: A-1.3 0 ppm, Cyclobutrifluram 0.05 ppm), 70%; in the test on Septoria glycines (Table 13: A-1.3 0 ppm, Cyclobutrifluram 0.1 ppm) it was 90%; in the test with Septoria glycines (Table 13: A-1.3 0 ppm, Cyclobutrifluram 0.2 ppm), 90%. Also, the “Observed Activity (%)” value in the test on Septoria glycines (Table 14: A-1.3 0 ppm, Cyclobutrifluram 0.0125 ppm) was 20%; in the test on Septoria glycines (Table 14: A-1.3 0 ppm, Cyclobutrifluram 0.025 ppm), 50%; in the test with Septoria glycines (Table 14: A-1.3 0 ppm, Cyclobutrifluram 0.05 ppm), 70%; with Septoria glycines (Table 14: A-1.3 0 ppm, Cyclobutrifluram 0.1 ppm), 70%; with Septoria glycines (Table 14: A-1.3 0 ppm, Cyclobutrifluram 0.2 ppm), 90%.
With `CO/C=C(/C(=O)OC)c1ccccc1CSc1nc2ccccc2s1` [Benzothiostrobin], the “Observed Activity (%)” value in the test on Septoria glycines (Table 22: A-1.3 0 ppm, Benzothiostrobin 0.0125 ppm) was 50%; with Septoria glycines (Table 22: A-1.3 0 ppm, Benzothiostrobin 0.025 ppm), 70%; in the test with Septoria glycines (Table 22: A-1.3 0 ppm, Benzothiostrobin 0.05 ppm), 90%; in the test on Septoria glycines (Table 22: A-1.3 0 ppm, Benzothiostrobin 0.1 ppm), 90%; with Septoria glycines (Table 22: A-1.3 0 ppm, Benzothiostrobin 0.2 ppm), 90%.
With `COc1ccnc(C(=O)N[C@@H](C)C(=O)O[C@@H](C)C(c2ccc(F)cc2)c2ccc(F)cc2)c1OC(C)=O` [Florylpicoxamid], the “Observed Activity (%)” value came to 70% with Septoria glycines (Table 15: A-1.3 0 ppm, Florylpicoxamid 0.05 ppm) and 90% in the test on Septoria glycines (Table 15: A-1.3 0 ppm, Florylpicoxamid 0.1 ppm).
Take `COc1c(F)c(F)c(C(=O)NCc2ncc(C(F)(F)F)cc2Cl)c(F)c1F` [Fluopimomide]: the “Observed Activity (%)” value amounted to 0% in the test on Septoria glycines (Table 20: A-1.3 0 ppm, Fluopimomide 1.25 ppm); 0% in the test with Septoria glycines (Table 20: A-1.3 0 ppm, Fluopimomide 2.5 ppm); 0% in the test with Septoria glycines (Table 20: A-1.3 0 ppm, Fluopimomide 5 ppm); 0% in the test with Septoria glycines (Table 20: A-1.3 0 ppm, Fluopimomide 10 ppm); 0% with Septoria glycines (Table 20: A-1.3 0 ppm, Fluopimomide 20 ppm).
In the case of `Cc1nc2c(F)c(F)ccc2cc1Oc1cccc(F)c1C(C)(C)O` [Ipflufenoquin], the “Observed Activity (%)” value was found to be 70% in the test on Septoria glycines (Table 16: A-1.3 0 ppm, Ipflufenoquin 0.6125 ppm) and 90% in the test with Septoria glycines (Table 16: A-1.3 0 ppm, Ipflufenoquin 1.25 ppm).
As for `CNC(=O)C(OC)c1ccccc1COc1cc(C)ccc1C` (stereo not shown) [Mandestrobin], the “Observed Activity (%)” value in the test on Septoria glycines (Table 17: A-1.3 0 ppm, Mandestrobin 0.125 ppm) is reported as 50%; in the test on Septoria glycines (Table 17: A-1.3 0 ppm, Mandestrobin 0.25 ppm) it was 70%; in the test on Septoria glycines (Table 17: A-1.3 0 ppm, Mandestrobin 0.5 ppm), 90%; in the test on Septoria glycines (Table 18: A-1.3 0 ppm, Mandestrobin 0.25 ppm), 70%; in the test with Septoria glycines (Table 18: A-1.3 0 ppm, Mandestrobin 0.5 ppm), 70%; in the test with Septoria glycines (Table 18: A-1.3 0 ppm, Mandestrobin 1 ppm) it was 90%.
For `Cc1cccc(-n2nnn(C)c2=O)c1COc1ccn(-c2ccc(Cl)cc2)n1` [Metyltetraprole], the “Observed Activity (%)” value with Septoria glycines (Table 19: A-1.3 0 ppm, Metyltetraprole 0.003125 ppm) is given as 50%; in the test on Septoria glycines (Table 19: A-1.3 0 ppm, Metyltetraprole 0.00625 ppm), 70%; in the test with Septoria glycines (Table 19: A-1.3 0 ppm, Metyltetraprole 0.0125 ppm), 90%; in the test with Septoria glycines (Table 23: A-1.3 0 ppm, Metyltetraprole 0.003125 ppm), 20%; in the test with Septoria glycines (Table 23: A-1.3 0 ppm, Metyltetraprole 0.00625 ppm) it was 70%; in the test with Septoria glycines (Table 23: A-1.3 0 ppm, Metyltetraprole 0.0125 ppm), 70%. Further, the “Observed Activity (%)” value in the test on Septoria glycines (Table 23: A-1.3 0 ppm, Metyltetraprole 0.025 ppm) was 90%; in the test on Septoria glycines (Table 23: A-1.3 0 ppm, Metyltetraprole 0.05 ppm), 90%; in the test with Septoria glycines (Table 23: A-1.3 0 ppm, Metyltetraprole 0.1 ppm), 90%.
On to `COc1cc(C)c(C(=O)c2c(OC)ncc(Cl)c2C)c(OC)c1OC` [Pyriofenone], for which the “Observed Activity (%)” value is 20% in the test on Septoria glycines (Table 21: A-1.3 0 ppm, Pyriofenone 1.25 ppm); 20% in the test on Septoria glycines (Table 21: A-1.3 0 ppm, Pyriofenone 2.5 ppm); 20% in the test with Septoria glycines (Table 21: A-1.3 0 ppm, Pyriofenone 5 ppm); 20% in the test on Septoria glycines (Table 21: A-1.3 0 ppm, Pyriofenone 10 ppm); 20% in the test with Septoria glycines (Table 21: A-1.3 0 ppm, Pyriofenone 20 ppm); 0% in test [1] (Pyriofenone 2.5 ppm). For the same molecule, the “Observed Activity (%)” value in test [1] (Pyriofenone 5 ppm), in test [1] (Pyriofenone 10 ppm) and in test [1] (Pyriofenone 20 ppm) was 0% each time.
For the molecule `CN1OC(c2ccc(Cl)cc2)CC1(C)c1cccnc1` (stereo not shown) [Pyrisoxazole], the “Observed Activity (%)” value in the test with Septoria tritici (Table 11: A-1.3 0 ppm, Pyrisoxazole 0.25 ppm) worked out at 0%; in the test on Septoria tritici (Table 11: A-1.3 0 ppm, Pyrisoxazole 0.5 ppm) it was 20%; in the test with Septoria tritici (Table 12: A-1.3 0 ppm, Pyrisoxazole 0.0625 ppm), 0%; in the test on Septoria tritici (Table 12: A-1.3 0 ppm, Pyrisoxazole 0.125 ppm), 0%; in the test with Septoria tritici (Table 12: A-1.3 0 ppm, Pyrisoxazole 0.25 ppm), 0%; in the test on Septoria tritici (Table 12: A-1.3 0 ppm, Pyrisoxazole 0.5 ppm) it was 70%. The “Observed Activity (%)” value in the test with Septoria tritici (Table 12: A-1.3 0 ppm, Pyrisoxazole 1 ppm) is on record as 90%; with Corynespora cassiicola (Pyrisoxazole 0.5 ppm) it was 20%; in the test with Corynespora cassiicola (Pyrisoxazole 1 ppm), 70%.
